This note sets out measurements from patent US9561228B2 (Celgene Avilomics Research, Inc., priority 2013, dated 2017).

Common to all, as to assay type: cell-based
Assay [1] relates to ERK1/2 phosphorylation of p90RSK in A375 cells. Briefly: Detection of total and phosphor-RSK by MSD ELISA (A375). As to conditions: Homo sapiens, A-375, read-out: ERK1/ERK2 PRSK A375 EC50. An outline of the steps: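 A375 cells serum-starved overnight in DMEM/0.1% FBS, then treated 2 h at 37° C with compound (1000× DMSO dilutions into medium). Lysates captured on RSK antibody-coated MSD plates; phospho-RSK (Ser380) and total RSK detected with SulfoTag secondary antibodies by electrochemiluminescence.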
In general terms: ELISA stands for enzyme-linked immunosorbent assay.

The test system of assay [2] is ERK1/2 phosphorylation of p90RSK (pRSK). The assay is described as follows: Duration of action after washout: p-RSK inhibition at 6 hr. As to conditions: 6 hr after washout.
Method: Measurement of Duration of Action of Test Compounds
One day before the assay, the cells were split and added at 50,000 cells per well in flat-bottom 96 well plate in 200 μl of growth media. The next day, the medium was discarded, 100 μl medium containing test compounds was added, and the plate was incubated at 37° C. for 120 minutes. The medium was discarded, and the cells were rinsed 3 times with PBS followed by addition of 200 μl of fresh grow medium. The plate was returned to a 37° C. incubator, and separate cell lysates were made using MSD lysis buffer after 0.25, 0.5, 1, 2, 4, 6, 8 and 18 or 24 hours. Thereafter, pRSK was measured as described above in the section entitled pRSK MSD Assay.
For assay [3], the system named is A375 cells (malignant melanoma). The assay is described as follows: Inhibition of cancer cell proliferation, A375 (CellTiterGlo, 72 hours). As to conditions: Homo sapiens, A-375. In a few lines:
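A375 melanoma cells, 3000/well, exposed 72 h at 37 °C to compound in 3-fold serial dilutions (solution added as 2× stock starting at 5,000 nM in serum-free DMEM). CellTiterGlo luminescence converted to cell number via standard curve; % inhibition vs untreated control, GI50 from curve fit.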

For assay [4], the system named is HCT116 cells (colorectal carcinoma). Briefly: Inhibition of cancer cell proliferation, HCT116 (CellTiterGlo, 72 hours). As to conditions: Homo sapiens, HCT-116. Here is the method: Measurement of Inhibition of Cancer Cell Proliferation (HCT116/Colorectal Carcinoma)
The following protocol used a HCT116 cell line, which cell line is a model for colorectal carcinoma. HCT116 cells were split and 3000 cells in 100 μl of growth medium were added per well of a flat-bottom 96-well plate. A two-fold test compound solution in serum-free RPM1640 was made, starting at 5,000 nM. Then, 3-fold serial dilutions were made across the plate from well 1 to well 11. Well 12, the last well in a row on the plate, was left as untreated control. 100 μl compound solutions were then transferred to the wells, so the total volume of media was 200 μl per well. Plates were returned to a 37° C. incubator, and the cells were cultured for 72 hours. To measure cell proliferation after 72 hours, media was discarded from the plates, 50 μl/well of fresh medium was added, and 50 μl CellTiterGlo solution was added (Promega Cat#G7573). The plate was covered with a dark lid and incubated for 10 min. A white sealing tape was applied to the bottom of the plate, and the plate was read in a luminescence plate reader. […] 50 μl CellTiterGlo was added per well, and the plate was read in a luminescence plate reader after 10 min. The reading was plotted vs. cell number to generate a standard curve and the equation of the curve fit. The compound-treated sample luminescence readings were converted to cell numbers using the curve-fit equation. The percent of inhibition, using untreated control as 100% growth, was then calculated. GI50 was then calculated by GraphPad Prism.

Assay [5] concerns HT-29 cells (colorectal adenocarcinoma). Briefly: Inhibition of cancer cell proliferation, HT-29 (CellTiterGlo, 72 hours). As to conditions: Homo sapiens. An outline of the steps:
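HT-29 cells seeded at 3000/well, then treated with 3-fold serial dilutions from a 5,000 nM two-fold solution in serum-free RPMI1640, untreated wells as control, for 72 h at 37° C. CellTiterGlo luminescence converted to cell number via a standard curve; GI50 from percent inhibition versus untreated growth.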
On the technique in general: In ATP-based viability assays light output follows the ATP content of the culture.

The GI50 is the concentration giving 50% growth inhibition.

In the case of `C=CC(=O)Nc1ccccc1Nc1nc(N[C@H]2CCCN(C(=O)CO)C2)ncc1C(F)(F)F` [Compound I-15, (S)—N-(2-((2-((1-(2-hydroxyacetyl)piperidin-3-yl)amino)-5-(trifluoromethyl)pyrimidin-4-yl)amino)phenyl)acrylamide], in assay [1], the EC50 is below 100 nM. Besides, in assay [2], the “p-RSK inhibition at 6 hr (%)” value was “E (a p-RSK inhibition percent of ≧70%)”. The GI50 in assay [3], in assay [4] and in assay [5] was below 100 nM throughout.
